From PubChem BioAssay AID1963432 (Molecular Pharmacology Branch, DTP, NCI, 2024)
Several values for one entry are separate records, joined by “and”; a condition that tells them apart may be missing. Identical values can stand only once.

Tested on: SYO-1 complex spheroid growth, percent test/control
Assay: Anticancer human tumor SYO-1 cell line growth inhibition [Asc];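 further: compound exposure lasted 7 days after spheroids grew 3 days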
Conditions: for viability, T/C: stronger effect = lower value; active means viability on the fitted dose curve at most 10% of control; inactive means the rest
Protocol: Multicellular complex tumor spheroid response to apoptosis pathway targeting inhibitors Alrizomadlin, Pelcitoclax, and Dasminapant in combination with a variety of drugs and investigational agents in selected tumor cell lines
The MDM2 inhibitor alrizomadlin, the Bcl-2/Bcl-xL inhibitor pelcitoclax, and the IAPs inhibitor dasminapant were evaluated both individually and in combination with standard of care and investigational anticancer small molecules within a complex spheroid model of solid tumors. . Complex spheroids include a stromal component modeled by human endothelial cells (HUVEC) and fibroblasts modeled by human mesenchymal stem cells (MSCs). The concentration ranges selected for each drug and investigational agent were based upon clinically achievable concentrations if the clinical Cmax of the agent was known.
Compounds. The drugs and investigational agents: alrizomadlin (APG-115; NSC831270), pelcitoclax (APG-1252; NSC835773), dasminapant (APG-1387;NSC834197), TAK-243 (NSC785004), copanlisib (NSC809693), olaparib (NSC753686), talazoparib (NSC767125), cobimetinib (NSC 768068), eltanexor (KPT-8602, NSC 794443), abemaciclib (NSC 768073), sotorasib (NSC818433), adagrasib (NSC 831453), MRTX-1133 (NSC 836407), Iadademestat (ORY1001, NSC 806812), and RMC-4630 (NSC839698), were obtained from the NCI Developmental Therapeutics Program Chemical Repository. The FDA-approved anticancer drug set is available from the Developmental Therapeutics Program at https://dtp.cancer.gov/organization/dscb/obtaining/available plates.htm. […] The stock solutions were prepared in dimethyl sulfoxide (DMSO, Sigma-Aldrich, St. Louis, MO, cat. D2650) at 800-fold the tested concentration and stored at -70 degrees C prior to their use. All drugs and investigational agents were tested over a range starting from a high concentration at or near the clinical Cmax and decreasing in half-log increments. If the clinical Cmax for an agent had not been determined, the highest concentration tested was 10 microM.
The patient-derived cancer (PDC) cell lines include five colon adenocarcinomas: 186277-243-T-J2-PDC, 616215-338-R-J1-PDC, 439559-082-T-J2-PDC, 463943-066-T-J2-PDC, and 519858-162-T-J1-PDC; three pancreatic carcinomas: 323965-272-R-J2-PDC, 521955-158-R6-J3-PDC, and 521955-158-R2-J5-PDC; two uterine sarcomas: 327498-152-R-J2-PDC and 993429-296-R-J1-PDC; two rhabdomyosarcomas: 755483-174-R-J1-PDC and 772245-204-R-J1-PDC; two soft tissue sarcomas: 126254-015-R-J1-PDC and 494315-158-R-J1-PDC; two malignant fibrous histiocytomas: 317291-083-R-J1-PDC and 596521-263-R-J1-PDC; two breast carcinomas: 171881-019-R-J1-PDC and 885512-296-R-J2-PDC; and one ovarian carcinoma: 6556581-035-R-J-PDC were obtained from the NCI PDMR, (https://pdmr.cancer.gov). The established cell lines HSSY-2 synovial sarcoma (RRID:CVCL 8719), SYO-1 synovial sarcoma (RRID:CVCL_7146), MPNST malignant peripheral neural sheath tumor were obtained from the Sloan Kettering Institute. The following established cell lines were purchased from the American Type Culture Collection (ATCC, Manassas, VA), Sor the received from the NCI repository:, PANC-1 pancreatic carcinoma (CRL-1469, RRID:CVCL_0480), OVCAR-5 ovarian carcinoma (RRID:CVCL_1628), OVCAR-8 ovarian carcinoma (RRID:CVCL_1629), , MCF-7 breast carcinoma (CRL-12584, RRID:CVCL_0031), MDA-MB-231 breast carcinoma (CRL-12532, RRID:CVCL_0062), NCI-H1876 small cell lung carcinoma (CRL-5902, RRID:CVCL_1503), NCI-H510A small cell lung carcinoma (HTB-184, RRID:CVCL_1565), NCI-H1417 (CRL-5869, RRID:CVCL_1469), and NCI-H196 small cell lung carcinoma (CRL-5823, RRID:CVCL_1509). Dr. Peter Houghton (Greehey Children's Cancer Research Institute, University of Texas Health Science Center, San Antonio, TX) provided Rh-18 rhabdomyosarcoma (RRID:CVCL_1659). Pooled donor human umbilical vein endothelial cells (HUVEC, Lonza, cat. CC-2519) and human mesenchymal stem cells (hMSC, Lonza, cat. PT-2501) were purchased from Lonza (Walkersville, MD).
Cell Culture. […]

Cc1c(S(C)(=O)=O)c(-c2cc(F)cc(N3CCN(c4ccc(NS(=O)(=O)c5ccc(NC(CCN6CCC(C(=O)OCCCP(=O)(O)O)CC6)CSc6ccccc6)c(S(=O)(=O)C(F)(F)F)c5)cc4)CC3)c2)c(-c2ccc(Cl)cc2)n1C(C)C (centres undefined)
inactive: viability, T/C (compound 0.0316 µM) 102% [middle of 7 runs] | viability, T/C (compound 0.1 µM) 100% [middle of 7 runs] | viability, T/C (compound 0.316 µM) 96.5% [middle of 7 runs] | viability, T/C (compound 1 µM) 90.6% [middle of 7 runs] | viability, T/C (compound 3.16 µM) 88.6% [middle of 7 runs] | viability, T/C (compound 10 µM) 79% [middle of 7 runs]
> 10000 nM: IC50 (compound alone, run of 11/07/2022)

Cc1nc(N2CCC3(CC2)COC(C)C3N)c(CO)nc1Sc1ccnc(N)c1Cl (centres undefined)
> 3000 nM: IC50 (curve of compound)
inactive: viability, T/C (compound 0.00949 µM) 107% and 98.7% and 112% | viability, T/C (compound 0.03 µM) 112% and 94% and 111% | viability, T/C (compound 0.0949 µM) 107% and 116% and 103% | viability, T/C (compound 0.3 µM) 108% and 109% (2×) | viability, T/C (compound 0.949 µM) 112% and 114% and 107% | viability, T/C (compound 3 µM) 103% and 100% and 109%

Cn1ncnc1[C@H]1c2n[nH]c(=O)c3cc(F)cc(c23)N[C@@H]1c1ccc(F)cc1
inactive: viability, T/C (compound 0.000316 µM) 105% and 109% and 104% | viability, T/C (compound 0.001 µM) 103% and 106% and 95.2% | viability, T/C (compound 0.00316 µM) 104% and 97.3% and 107% | viability, T/C (compound 0.01 µM) 87.3% and 95.5% and 98.1% | viability, T/C (compound 0.0316 µM) 53.5% and 74.9% and 64.4% | viability, T/C (compound 0.1 µM) 15% and 91.9% and 12.5%
34.8 nM and > 100 nM and 43.5 nM: IC50 (curve of compound)

NC(=O)C(=Cn1cnc(-c2cc(C(F)(F)F)cc(C(F)(F)F)c2)n1)c1cncnc1
180 nM and 183 nM and 257 nM: IC50 (curve of compound)
inactive: viability, T/C (compound 0.000949 µM) 97.3% and 93.8% and 106% | viability, T/C (compound 0.003 µM) 98.8% and 101% and 104% | viability, T/C (compound 0.00949 µM) 97.4% and 98% and 95.6% | viability, T/C (compound 0.03 µM) 96.9% and 95.8% and 107% | viability, T/C (compound 0.0949 µM) 95.9% and 94.2% and 99.5% | viability, T/C (compound 0.3 µM) 13.3% and 16.5% and 42.3%

NC1CCC(NC2CC2c2ccccc2)CC1 (centres undefined)
> 100 nM: IC50 (curve of compound)
inactive: viability, T/C (compound 0.000316 µM) 108% and 106% and 112% | viability, T/C (compound 0.001 µM) 102% and 97% and 97.1% | viability, T/C (compound 0.00316 µM) 90.9% and 95.4% and 93.3% | viability, T/C (compound 0.01 µM) 94.7% and 89.3% and 92.9% | viability, T/C (compound 0.0316 µM) 91.9% and 96.6% and 88.2% | viability, T/C (compound 0.1 µM) 90.8% and 84.5% and 86.5%

O=C(c1cc(Cc2n[nH]c(=O)c3ccccc23)ccc1F)N1CCN(C(=O)C2CC2)CC1
6.76% and 6.7% and 10.1%: viability, T/C (compound 10 µM)
inactive: viability, T/C (compound 0.0316 µM) 96.5% and 98.2% and 111% | viability, T/C (compound 0.1 µM) 91.4% and 91.9% and 103% | viability, T/C (compound 0.316 µM) 102% and 99.6% and 101% | viability, T/C (compound 1 µM) 96.7% and 105% and 95.2% | viability, T/C (compound 3.16 µM) 38% and 49.1% and 73.5%
2500 nM and 3100 nM and 4810 nM: IC50 (curve of compound)

O=C(c1ccc(F)c(F)c1Nc1ccc(I)cc1F)N1CC(O)([C@@H]2CCCCN2)C1
> 1000 nM: IC50 (curve of compound)
inactive: viability, T/C (compound 0.00316 µM) 105% and 97.6% and 106% | viability, T/C (compound 0.01 µM) 104% and 97% and 105% | viability, T/C (compound 0.0316 µM) 103% (2×) and 102% | viability, T/C (compound 0.1 µM) 108% (2×) and 102% | viability, T/C (compound 0.316 µM) 111% and 99.2% and 96.4% | viability, T/C (compound 1 µM) 104% and 106% and 101%
